Experimental data published in publication PMC10940318, “Targeted intracellular delivery of dimeric STINGa by two pHLIP peptides for treatment of solid tumors” (Frontiers in Pharmacology, 2024).

Tests used:
[1] = system: CT26 murine colorectal cancer tumors; experiment: Treatment of CT26 tumors in mice; format: in vivo, Balb/c mice; conditions: two IP injections of 300 µM 500 µL on days 1 and 3; CT26 tumors
Protocol: For the treatment of CT26 tumors, 5 × 10^4 CT26 murine colorectal cancer cells (ATCC, CRL-2638) were injected subcutaneously (SQ) in 100 μL of growth medium into the right flank of female Balb/c mice ranging in age from 7 to 9 weeks (Envigo RMS, Inc.). […] The compounds were dissolved in DMSO as a stock solution and transferred to PBS (vehicle). The residual DMSO in the final solution injected into animals was less than 2%. Tumor volume and body weight were measured 3 times per week throughout the study. Measurements of tumors were performed using calipers, and the tumor volume (V) was calculated with the formula: V=0.52∙L∙W^2 where L is the length and W is the width of the measured tumor. Mice were removed from the study and euthanized when the tumor volume was greater than 2,000 mm^3.

human STING WT protein = molecular target: T1, human STING WT protein (Homo sapiens, UniProt Q86WV6); experiment: HTRF competitive binding to STING protein (human STING WT binding kit); conditions: HTRF competitive assay, 6His-tagged human STING WT, d2-labelled ligand, 3 h RT; EC50 in method, IC50 in Fig. S1; read-out: binding affinity to STING protein
T1 construct: purchased Cisbio
Protocol: STING WT ligand d2 reagent was premixed with 6His Tb antibodies, and it was added to each well and the plate was incubated for 3 h at RT. Fluorescence intensities at 616 nm and 665 nm excited at […] were recorded on the SpectraMax ID5 plate reader (Molecular Devices). The homogeneous time resolved fluorescence (HTRF) ratio was calculated to establish the binding of each agent to the STING protein and to calculate EC50.

[2] = system: THP-1-Blue-ISG cells polarized into M2-type macrophages; experiment: Activation of IFN (IRF-SEAP reporter) in M2-polarized macrophages; format: cell-based, human; conditions: THP1-Blue-ISG cells polarized by PMA, IL-4/IL-13, 2 h in DMEM without FBS pH 6.9, then 48 h, QUANTI-Blue, absorbance 655 nm, read-out: EC50 of activation of IRF signaling
Protocol: THP-1-Blue™-ISG cells (Invivogen) expressing an interferon (IFN) regulatory factor (IRF)-inducible secreted embryonic alkaline phosphatase (SEAP) reporter construct were used. Cells were maintained in RPMI growth medium supplemented with L-glutamine, sodium pyruvate, 10% fetal bovine serum (FBS), normocin and ciprofloxacin hydrochloride in a humidified atmosphere of 5% CO2 and 95% air at 37°C. Cells were seeded in 96-well plates at a density of 75,000 cells/well. To generate M2 polarized macrophages, cells were treated first with 185 ng/mL phorbol 12-myristate 13-acetate (PMA) for 6 h and then 20 ng/mL of interleukin 4 (IL-4) and 20 ng/mL of interleukin 13 (IL-13) (both from PeproTech) were added for another 16 h of treatment. […] After a 2-h incubation, an equal volume of RPMI supplemented with 20% heat-inactivated FBS was added, and cells were incubated for another 48 h. SEAP activity was accessed using the QUANTI-Blue™ Solution (Invivogen) to evaluate type I interferon protein levels: 150 μL of the colorimetric reagent was added to 50 μL of cell supernatant for 30 min, 37°C, followed by absorption measurement at 655 nm.

[3] = Stability in mouse plasma; conditions: BALB/c mouse plasma, 200 µM
Protocol: Plasma proteins were precipitated by methanol (1:5 volume ratio of plasma to methanol) and centrifuged for 10 min at […]. The supernatant was collected and analyzed by HPLC using a Zorbax SB-C18 4.6 × 250 mm, 5 μm column with a gradient from 20% to 80% acetonitrile in water containing 0.05% TFA. Chromatograms were recorded at 220 nm, 280 nm and 325 nm.

CT26 tumor = experiment: Biodistribution and tumor targeting by ex vivo NIR fluorescence imaging; format: in vivo, Balb/c mice; conditions: single RO injection 50 µM 100 µL; ex vivo fluorescence at 1-120 h
Protocol: For biodistribution studies 5 × 10^4 of CT26 cancer cells were injected SQ in 100 µL of growth medium into the right flank of female Balb/c mice and tumors were grown until they reached 150–250 mm^3 in volume. Then a single retro-orbital (RO) injection of 50 μM 100 μL of 2(ICG-pHLIP)-dMSA was performed. Animals were euthanized at 5 min, 1, 4, 24, 48, 72, and 120 h post-injection, blood was collected in K2 EDTA vacutainer blood collection tubes (BD), and necropsy was performed immediately after animals were euthanized. […]
The in vivo and ex vivo bright field and near-infrared fluorescent imaging employed a Stryker 1588 AIM endoscopic system with L10 AIM Light Source (808 nm excitation and collection of light in the range of approximately of 815–850 nm), and a 1588 AIM Camera using a 10 mm scope. […] The ex vivo fluorescence imaging of tissue specimens was performed using three different laser settings and six different gain settings. The digital fluorescence images were split into RGB channels, with the green channel being analyzed using ImageJ program to calculate the average fluorescence intensity. All average intensities were adjusted based on their capture settings and using calibration curves to present fluorescence intensities corresponding to the unified (the same) settings.

[4] = Blood clearance (PK) by whole blood fluorescence imaging; format: in vivo, Balb/c mice; conditions: single RO injection of 2(ICG-pHLIP)-dMSA 50 µM 100 µL, CT26 tumor-bearing female Balb/c mice; whole blood fluorescence, exponential fit
Protocol: For biodistribution studies 5 × 10^4 of CT26 cancer cells were injected SQ in 100 µL of growth medium into the right flank of female Balb/c mice and tumors were grown until they reached 150–250 mm^3 in volume. Then a single retro-orbital (RO) injection of 50 μM 100 μL of 2(ICG-pHLIP)-dMSA was performed. Animals were euthanized at 5 min, 1, 4, 24, 48, 72, and 120 h post-injection, blood was collected in K2 EDTA vacutainer blood collection tubes (BD), and necropsy was performed immediately after animals were euthanized. Blood, tumors and major organs (kidney, liver, spleen, pancreas, lung, heart, large and small intestines, bone, muscle, brain) were collected, and imaged ex vivo immediately after necropsy. Blood (200 µL) was imaged in 96-well plates with black bottom and walls.
The in vivo and ex vivo bright field and near-infrared fluorescent imaging employed a Stryker 1588 AIM endoscopic system with L10 AIM Light Source (808 nm excitation and collection of light in the range of approximately of 815–850 nm), and a 1588 AIM Camera using a 10 mm scope. The lens was kept at a fixed distance from the surface of the organs, within an enclosed (light-protected) area. Calibration curves converting laser and gain settings were established by imaging of pHLIP-ICG solution at different concentrations. The ex vivo fluorescence imaging of tissue specimens was performed using three different laser settings and six different gain settings. The digital fluorescence images were split into RGB channels, with the green channel being analyzed using ImageJ program to calculate the average fluorescence intensity. All average intensities were adjusted based on their capture settings and using calibration curves to present fluorescence intensities corresponding to the unified (the same) settings.

[5] = Self-immolation kinetics of the S-S linker and payload release after DTT, by HPLC; format: physicochemical; conditions: DTT in 50 mM phosphate buffer, 150 mM NaCl, pH 7.4; HPLC at 0.5-48 h, UV 220/280/325 nm
Protocol: Figure S3. Kinetics of self-immolation of 2pHLIP-dMSA. […] Starting 2pHLIP-dMSA is shown on A.
Figure S4. Self-immolation kinetics of pHLIP-mMSA. HPLC chromatograms recorded at 280 nm and 325 nm for pHLIP-mMSA treated with DTT dissolved in 50 mM phosphate buffer containing 150 mM NaCl pH 7.4 at different time points ([…]) after addition of DTT (A-G) and the retention time for mMSA (H) and pHLIP (I) are shown. Starting pHLIP-mMSA is shown on A.

[6] = Stability in human plasma; format: in vitro ADME; conditions: single donor human plasma, 200 µM, 0-24 h at 37°C, methanol precipitation, HPLC C18, UV 220/280/325 nm
Protocol: Plasma proteins were precipitated by methanol (1:5 volume ratio of plasma to methanol) and centrifuged for 10 min at 13.4 rpm. The supernatant was collected and analyzed by HPLC using a Zorbax SB-C18 4.6 × 250 mm, 5 μm column with a gradient from 20% to 80% acetonitrile in water containing 0.05% TFA. Chromatograms were recorded at 220 nm, 280 nm and 325 nm.

T1 sequence (Q86WV6 whole entry): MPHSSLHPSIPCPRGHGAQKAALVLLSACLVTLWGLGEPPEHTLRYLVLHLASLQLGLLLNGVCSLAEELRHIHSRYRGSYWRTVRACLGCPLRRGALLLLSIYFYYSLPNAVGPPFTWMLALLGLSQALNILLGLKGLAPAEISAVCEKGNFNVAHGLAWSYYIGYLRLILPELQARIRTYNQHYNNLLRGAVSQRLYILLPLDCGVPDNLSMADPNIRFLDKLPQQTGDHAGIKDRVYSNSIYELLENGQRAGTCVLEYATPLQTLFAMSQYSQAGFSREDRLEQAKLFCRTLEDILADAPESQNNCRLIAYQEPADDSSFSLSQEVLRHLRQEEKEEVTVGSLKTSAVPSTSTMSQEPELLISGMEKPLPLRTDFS

Compound: COc1cc2cc(C(=O)CCC(=O)O)sc2cc1OC [mMSA, reference compound]
- therapeutic activity on animals (in words) [1]: did not demonstrate any activity
- IC50 (human STING WT protein): 7.5 µM
- EC50 [2]: 2.2 µM
- time within which the cargo released from pHLIP underwent degradation in mouse plasma ([3]; 37°C, HPLC C18, UV): ≤ 24 h

Compound: AKDQDNPWRAYLDLLFPTDTLLLDLLWCG [2(ICG-pHLIP)-dMSA, fluorescent version of 2pHLIP-dMSA with ICG dye on a lysine near the N-terminus of each pHLIP]
- accumulation in the tumor (in words) (CT26 tumor): significant accumulation of the agent in the tumor from 1 h and up to 48 h
- organ and tissue clearances (in words) (CT26 tumor): slow
- blood clearance half-life [4]: 32.2 h

Compound: ADQDNPWRAYLDLLFPTDTLLLDLLWCG [pHLIP-mMSA]
- time to completion of linker self-immolation and release of payload in its original form [5]: ≤ 24 h
- stability in human plasma (in words) [6]: very high
- stability in mouse plasma (in words) ([3]; 0-24 h at 37°C, methanol precipitation, HPLC C18, UV 220/280/325 nm): low
